From ChEMBL document CHEMBL1130093, “Synthesis and nicotinic acetylcholine receptor binding properties of exo-2-(2'-fluoro-5'-pyridinyl)-7-azabicyclo-[2.2.1]heptane: a new positron emission tomography ligand for nicotinic receptors” (J Med Chem, 1997) come the findings set out here.

The test has as its target Neuronal acetylcholine receptor (Rattus norvegicus) (UniProt P04757+P09483+P12389+P12390+P12392+P43144+Q9JLB5+P12391+P43143+P20420+Q05941). Put plainly: Kapp value towards nicotinic acetylcholine receptor was obtained from three to four independent competition binding experiments using [3H]-NCEPB. Type of test: protein-complex assay.
With `Clc1ccc(C2CC3CC[C@H]2N3)cn1` (stereo partly drawn), the K app is 0.024 nM. In turn, `Fc1ccc([C@H]2CC3CCC2N3)cn1` (stereo partly drawn) came in with a K app of 0.02 nM. Take `CN1CCC[C@H]1c1cccnc1`: the K app came out at 6.2 nM.
